Reference: patent US20220193072A1, “METHODS OF TREATING BREAST CANCER WITH TETRAHYDRONAPHTHALENE DERIVATIVES AS ESTROGEN RECEPTOR DEGRADER” (Arvinas Operations, Inc., priority 2020, published 2022)
Values joined by “and” are separate entries in the source; they are usually repeats but may differ in a detail not shown here. Identical values can stand only once. Like-named read-outs stand apart in the source and are kept apart here.

Columns and labels:
rat uterine ER = target: T1, rat uterine ER (Rattus norvegicus, UniProt P06211); test: Immature rat uterotrophic model; format: in vivo
T1 construct: from tissue; host or cells: uterus of immature rats
T1 sequence (P06211 1-600): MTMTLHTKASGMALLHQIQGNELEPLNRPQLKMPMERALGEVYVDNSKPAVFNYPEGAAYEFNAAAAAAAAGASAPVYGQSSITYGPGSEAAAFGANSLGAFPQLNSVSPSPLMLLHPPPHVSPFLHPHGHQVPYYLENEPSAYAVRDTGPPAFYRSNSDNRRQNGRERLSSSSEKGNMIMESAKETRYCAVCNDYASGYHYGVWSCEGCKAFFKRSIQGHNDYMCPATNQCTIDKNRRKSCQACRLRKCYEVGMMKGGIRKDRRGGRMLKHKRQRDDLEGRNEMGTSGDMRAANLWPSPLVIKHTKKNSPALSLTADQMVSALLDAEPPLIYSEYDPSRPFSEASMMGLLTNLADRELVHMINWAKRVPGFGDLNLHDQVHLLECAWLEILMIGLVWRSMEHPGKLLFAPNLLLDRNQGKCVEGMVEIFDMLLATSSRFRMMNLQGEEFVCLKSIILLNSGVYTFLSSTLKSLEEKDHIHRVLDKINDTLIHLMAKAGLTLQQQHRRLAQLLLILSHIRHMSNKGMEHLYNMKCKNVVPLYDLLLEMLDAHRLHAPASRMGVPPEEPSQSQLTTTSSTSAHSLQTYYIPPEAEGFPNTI

[1] = 28-day oral toxicology study in dogs; format: in vivo; settings: oral once daily 28 days
[2] = system: tamoxifen-resistant MCF7 xenografts; test: Tamoxifen-resistant MCF7 orthotopic xenograft tumor growth inhibition; format: in vivo, Nu/Nu mice
Procedure: Species: Ovariectomized Nu/Nu female mice. Animal handling: Axial mammary fat pad implantation of tamoxifen-resistant tumor fragment (from E45 passage. SC per mouse. Tamoxifen pellet (5 mg, 60-day release) was implanted under the same anesthesia as tumor fragment (pellet—dorsal; tumor—ventral).
Dosing: Oral (gavage), once a day for 28 days (QD×28)
Sampling: Tumors were measured twice weekly. Terminal sacrifice was ˜18 hr after last dose; tumors were harvested, divided, and flash frozen. ERα levels were determined by immunoblotting (see Appendix 1 for details).

MCF7 xenograft [3] = test: MCF7 orthotopic xenograft, combination with CDK4/6 inhibitor; format: in vivo, NOD/SCID mice
MCF7 xenograft [4] = test: Tumor growth inhibition in orthotopic MCF7/estradiol xenograft model, single agent; format: in vivo, NOD/SCID mice; settings: for tumor growth inhibition (TGI): 28 days, vs vehicle
Procedure: Species: NOD/SCID female mice (Charles River, 6-7 weeks old upon arrival).
Animal handling: Axial mammary fat pad implantation of 5×10^6 MCF7 cells/200 per mouse (17β-estradiol 0.36 mg 90-day pellet implanted day before).
Tumor volumes were evaluated twice per week for twenty-eight days.
Sampling: Tumors were measured twice weekly. Terminal sacrifice was ˜18 hr after last dose; tumors were harvested, divided, and flash frozen. ERα levels were determined by immunoblotting.
Tumor volume calculation: Tumor Volume=(width×width×length)/2, where all measurements are in mm and the tumor volume is in mm^3.
Tumor Growth Inhibition (TGI) calculation: TGI (%)

T47D ESR1 Y537S cells = test: Live-cell imaging growth studies and EC50 for growth inhibition, T47D ESR1 Y537S; format: cell-based; settings: Homo sapiens, read-out: Approximate Half-maximal Effective Concentration (EC50) for growth inhibition
Procedure: MCF7, T47D, T47D ESR1 Y537S or T47D ESR1 D538G cells were seeded at 2×10^5 density per well in 6-well tissue culture-treated plates in DMEM/F12/10% FBS (2 mL total volume). […] The plate was then placed in the Incucyte® S3 Live-Cell Analysis System and images were acquired every 4 hours for a total of 5 days (120 hours). Data were analyzed using the Incucyte® Software v2020C which quantified cell surface area coverage as confluence values. Relative growth was calculated for all timepoints for all growth conditions relative to the confluence value observed for the control at 120 hours. Graphing and statistical analyses were performed using Graphpad Prism (GraphPad Software).

[5] = Phase I dose escalation safety; format: in vivo, human; settings: 30 mg/day cohort, n=3
Description: (§1) A Phase I Clinical Trial with Compound (I-c) was undertaken. A traditional 3+3 dose escalation design was implemented. […] Dose increases were dependent on toxicities.
(§2) The key entry criteria for this trial were: ER+/HER2− advanced breast cancer; at least two prior endocrine therapies in any setting, and a CDK4/6 inhibitor; and up to three prior cytotoxic chemotherapy regimens.

[6] = Phase I clinical trial pharmacokinetics; settings: human, in vivo, po, 30 mg, 30 mg oral once daily
Description: as §1, §2
The initial pharmacokinetic results are shown below in Table 2, as well as in FIG. 3 and FIG. 4.

estrogen receptor = test: In vitro ER degradation in ER-positive breast cancer cell lines (DC50); settings: wild-type and variant ERα expressing cell lines
[7] = Compound (I-c) 30 mg/kg oral QD x 28

O=C1CC[C@H](N2Cc3cc(N4CCN(CC5CCN(c6ccc([C@@H]7c8ccc(O)cc8CC[C@@H]7c7ccccc7)cc6)CC5)CC4)ccc3C2=O)C(=O)N1 [Compound (I-c), (3S)-3-[5-[4-[[1-[4-[(1R,2S)-6-hydroxy-2-phenyl-tetralin-1-yl]phenyl]-4-piperidyl]methyl]piperazin-1-yl]-1-oxo-isoindolin-2-yl]piperidine-2,6-dione]
degradation of rat uterine ER (rat uterine ER): degrades
agonist activity (uterine weight) (rat uterine ER; FIG. 17: 30 mg/kg once a day oral): no agonist activity
clinical signs of toxicity ([1]; doses up to 90 mg/kg/day): no clinical signs of toxicity
effects on overall animal health or well-being ([1]; up to 90 mg/kg/day): no effects on the overall animal health or well-being
Day 28 Tumor volume (mean ± SD) [2, 7]: 361 ± 181 mm^3
TGI (% vehicle) [2, 7]: 65 % vehicle
tumor growth inhibition (TGI) ([2]; tamoxifen-resistant MCF7, 30 mg/kg/day oral, 28 days): 65%
Day 28 Tumor volume (mean ± SD) (MCF7 xenograft [3]; [7]): 170 ± 62 mm^3
TGI (% vehicle) (MCF7 xenograft [3]; [7]): 105 % vehicle
tumor growth inhibition (TGI) (MCF7 xenograft [3]; single agent 30 mg/kg oral QD x 28): 105%
Day 28 Tumor volume (mean ± SD) (MCF7 xenograft [4]; 3 mg/kg oral QD x 28): 286 ± 206 mm^3
TGI (% vehicle) (MCF7 xenograft [4]; 3 mg/kg oral QD x 28): 85 % vehicle
tumor growth inhibition (TGI) (MCF7 xenograft [4]; 3 mg/kg oral once daily): 85%
Day 28 Tumor volume (mean ± SD) (MCF7 xenograft [4]; 10 mg/kg oral QD x 28): 226 ± 118 mm^3
TGI (% vehicle) (MCF7 xenograft [4]; 10 mg/kg oral QD x 28): 98 % vehicle
tumor growth inhibition (TGI) (MCF7 xenograft [4]; 10 mg/kg oral once daily): 98% and 94%
Day 28 Tumor volume (mean ± SD) (MCF7 xenograft [4]; 30 mg/kg oral QD x 28): 115 ± 79 mm^3
TGI (% vehicle) (MCF7 xenograft [4]; 30 mg/kg oral QD x 28): 124 % vehicle
tumor growth inhibition (TGI) (MCF7 xenograft [4]; 30 mg/kg oral once daily): 124%
EC50 (T47D ESR1 Y537S cells): 50 nM
dose limiting toxicity [5]: no dose limiting toxicity
treatment related adverse events [5]: no treatment related adverse events
AUC ([6]; Phase I, read-out: Mean Day 1 AUCTAU): 1690 ng·h/mL
Cmax ([6]; Phase I, read-out: Mean Day 1 Cmax): 109 ng/mL
Cmax ([6]; Phase I, read-out: Mean Day 15 Cmax): 224 ng/mL
AUC ([6]; calculated using imputed 24 hour values, read-out: Mean Day 15 AUCTAU): 4100 ng·h/mL
ERα degradation potency (estrogen receptor): single-digit nanomolar
